Results from PubChem BioAssay AID1552 (Sanford-Burnham Center for Chemical Genomics, 2009).
Activity calls are given as the source filed them. No rule for the calls is given here. Residues, ends and D or L forms follow the SMILES beside them.

These compounds were tested against Ubiquitin-conjugating enzyme E2 N (Homo sapiens) (UniProt P61088) (assay: NMR detection of UBE2N ligand binding – biophysical, purified protein (AID 1552)). Settings: NMR binding to purified UBE2N.
Sequence of Ubiquitin-conjugating enzyme E2 N (Homo sapiens) (P61088 whole entry, looked up): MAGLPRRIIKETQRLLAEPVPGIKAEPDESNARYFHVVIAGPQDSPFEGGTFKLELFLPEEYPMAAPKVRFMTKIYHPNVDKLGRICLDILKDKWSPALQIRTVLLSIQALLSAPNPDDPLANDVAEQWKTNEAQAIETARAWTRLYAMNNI

SMILES	Kd
CC(=O)N1CCn2c3c(c(=O)c4cc(C)ccc42)CCC31 (stereo not drawn)	> 4 mM (inactive)
Nc1ncccc1OCc1ccccc1	> 4 mM (inactive)
O=C(O)C1NCCc2ccccc21 (stereo not drawn)	> 4 mM (inactive)
Cn1c(O)c(/C=C2\C=CC=N2)c(=O)[nH]c1=S	> 4 mM (inactive)
O=C(O)Cc1noc2ccccc12	> 4 mM (inactive)
Oc1cccc(N2CCOCC2)c1	> 4 mM (inactive)
NC(=O)C(=O)Nc1nc(-c2ccccc2)cs1	> 4 mM (inactive)
O=C1C=C(Nc2ccc(O)cc2)c2ccccc2C1=O	> 4 mM (inactive)
NC1=NC(=O)/C(=C\c2ccco2)S1	> 4 mM (inactive)
O=C(/C=C1\SC(=O)NC1=O)NCc1ccccc1	> 4 mM (inactive)
NC(=O)c1cccnc1Oc1ccccc1	> 4 mM (inactive)
O=C(NCc1ccc2c(c1)OCO2)c1cccs1	> 4 mM (inactive)
COc1cc2c(cc1OC)[C@@H]1C(=O)c3ccc4oc(C(C)C)cc4c3O[C@@H]1CO2	> 4 mM (inactive)
NC(=O)c1ccsc1NC(=O)C1=COCCO1	> 4 mM (inactive)
CC1(C)N=C2C(=N)C=CC=C2N1O	> 4 mM (inactive)
CC(=O)O[C@H]1CCC2(C)C3=C(CCC2C1(C)C)[C@@]1(C)CC[C@@H](C(C)CCC=C(C)C)[C@]1(C)CC3 (stereo partly drawn)	> 4 mM (inactive)
Cc1cc(C(=O)N2CCN(c3ncccn3)CC2)c(C)o1	> 4 mM (inactive)
Cc1cccc(OCc2nnc(N)s2)c1	> 4 mM (inactive)
COC(=O)Cc1cc(=O)n(-c2ccccc2)[nH]1	> 4 mM (inactive)
CC1CCC(N2CCN(c3ncccn3)CC2)CC1 (stereo not drawn)	> 4 mM (inactive)
CC(=O)O[C@@H]1CC2C(C)(C)[C@@H](O)CC[C@]2(C)C2CC[C@@]3(C)[C@H](c4ccoc4)OC(=O)[C@H]4O[C@]43[C@@]21C (stereo partly drawn)	> 4 mM (inactive)

SMILES	Kd
Nc1ccc(S(=O)(=O)Nc2ccc(F)cc2F)cc1	> 4 mM (inactive)
Cc1noc(C)c1C(=O)Nc1cccnc1	> 4 mM (inactive)
NC(=O)CN1CCCCCC1=O	> 4 mM (inactive)
O=c1/c(=C\c2cccnc2)sc2nc3ccccc3n12	> 4 mM (inactive)
Cc1cccc(C(C)C)c1NC(=O)c1cccnc1	> 4 mM (inactive)
CC(=O)c1c(C)n(O)c2ccc3nonc3c12	> 4 mM (inactive)
O=C1CSC2(CN3CCC2CC3)N1 (stereo not drawn)	> 4 mM (inactive)
Cn1cc(Cl)c(C(=O)NC2CCCC2)n1	> 4 mM (inactive)
CCC1C(=O)OCC1Cc1cncn1C (stereo not drawn)	> 4 mM (inactive)
C[C@@H]1CC[C@@]2(OC1)OC1C(O)C3C4CC[C@H]5C[C@H](O[C@@H]6O[C@H](CO)[C@H](O[C@@H]7O[C@H](CO)[C@@H](O)[C@H](O[C@@H]8OC[C@@H](O)[C@H](O)[C@H]8O)[C@H]7O[C@@H]7O[C@H](CO)[C@H](O)[C@H](O[C@@H]8O[C@H](CO)[C@@H](O)[C@H](O)[C@H]8O)[C@H]7O)[C@H](O)[C@H]6O)[C@H](O)C[C@]5(C)C4CC[C@]3(C)C1[C@@H]2C (stereo partly drawn)	> 4 mM (inactive)
Nc1ccc(F)cc1F	> 4 mM (inactive)
Cc1nc2ccccc2c(=O)n1CCCO	> 4 mM (inactive)
O=C(CSc1cccc2cccnc12)N1CCCC1	> 4 mM (inactive)
NCCCCN	> 4 mM (inactive)
NC(=O)NCCCC(N)C(=O)O (stereo not drawn)	> 4 mM (inactive)
CC(=O)N[C@@H](CC(=O)O)C(=O)N[C@@H](CCC(=O)O)C(=O)O (Ac-Asp-Glu-OH)	> 4 mM (inactive)
CN(C)N1C(=O)c2ccccc2C1=O	> 4 mM (inactive)
CCc1sc(C(=O)NC)cc1Br	> 4 mM (inactive)
O=C(O)c1cccnc1N1CCOCC1	> 4 mM (inactive)
C=CCCCCCCCCCCCc1ccco1	> 4 mM (inactive)
O=C(O)C1CC(=O)N(C2Cc3ccccc3C2)C1 (stereo not drawn)	> 4 mM (inactive)

SMILES	Kd
O=C1CCc2ccccc2CN1	> 4 mM (inactive)
O=C(O)c1cc(O)c2c(c1)[C@@H]([C@H]1c3cc(C(=O)O)cc(O)c3C(=O)c3c(O[C@H]4O[C@H](CO)[C@@H](O)[C@H](O)[C@H]4O)cccc31)c1cccc(O[C@H]3O[C@H](CO)[C@@H](O)[C@H](O)[C@H]3O)c1C2=O	> 4 mM (inactive)
COc1ccc(S(=O)(=O)N2CCOCC2)cc1C(C)C	> 4 mM (inactive)
O=P(c1ccccc1)(c1ccccc1)C1CCOCC1	> 4 mM (inactive)
O=C(Nc1cccnc1)Nc1ccc2c(c1)OCO2	> 4 mM (inactive)
COC(=O)c1cccc(C(F)(F)F)c1	> 4 mM (inactive)
O=C1C=C(Nc2ccccc2O)c2ccccc2C1=O	> 4 mM (inactive)
COc1ccc(-c2cc(=O)c3ccccc3o2)cc1OC	> 4 mM (inactive)
CC(=O)N1N=C(N)SC1c1cccnc1 (stereo not drawn)	> 4 mM (inactive)
N#Cc1sc2nc3c(c(-c4cccnc4)c2c1N)CCC3	> 4 mM (inactive)
O=c1cnnc(NCc2ccc(F)cc2)[nH]1	> 4 mM (inactive)
Cc1ccc(C)c(C(=O)n2cnnc2N)c1	> 4 mM (inactive)
Cn1cccc1C(=O)NS(=O)(=O)c1ccccc1Cl	> 4 mM (inactive)
Cc1cc2cc3c(C)cc(=O)oc3c(C)c2o1	> 4 mM (inactive)
O=C(c1ccccc1F)N1CCN(c2ccccc2)CC1	> 4 mM (inactive)
CN(C)c1ccc(NC(=O)CC(C(=O)O)N(C)C)cc1 (stereo not drawn)	> 4 mM (inactive)
Cc1cc(C(=O)Nc2ccc3c(c2)OCO3)cs1	> 4 mM (inactive)
COC(=O)c1cccc2cc[nH]c12	> 4 mM (inactive)
CC(O)C(=O)N/N=C/c1cccs1 (stereo not drawn)	> 4 mM (inactive)
Nc1cccc2cccnc12	> 4 mM (inactive)
O=C(O)c1cnn2ccccc12	> 4 mM (inactive)

SMILES	Kd
CN1CCCn2c1nc1c2c(=O)[nH]c(=O)n1C	> 4 mM (inactive)
CC(=O)NC12CC3CC(CC(O)(C3)C1)C2	> 4 mM (inactive)
COC(=O)c1cc2ccccc2cn1	> 4 mM (inactive)
COc1ccc2c(CC(=O)O)coc2c1	> 4 mM (inactive)
COc1cc(OC)c(-c2nc3cnccc3n2C)cc1OC	> 4 mM (inactive)
O/N=C1/CCCc2nonc21	> 4 mM (inactive)
O=C(O)CNC(=O)c1ccccc1Cl	> 4 mM (inactive)
O=CN1CCN(C(=O)c2ccco2)CC1	> 4 mM (inactive)
O=C(c1ccco1)N1CCN(c2ccc(Cl)cc2)CC1	> 4 mM (inactive)
CC(=O)Nc1ccc(C(=O)n2nc(C)cc2C)cc1	> 4 mM (inactive)
Cc1c(C)[n+](=O)c(-c2cccs2)c(C)n1[O-]	> 4 mM (inactive)
O=C(O)c1ccc2snnc2c1	> 4 mM (inactive)
CC(=O)c1ccc(NC(=S)N2CCC(O)CC2)cc1	> 4 mM (inactive)
CC(=O)Nc1cccc(N(C)S(C)(=O)=O)c1	> 4 mM (inactive)
CCCCN1C(=O)C2CC/C(=N/O)CC2C1=O (stereo not drawn)	> 4 mM (inactive)
COCCn1c(SC)nc2c1c(=O)[nH]c(=O)n2C	> 4 mM (inactive)
O=C1c2ccccc2C(=O)c2c1ccc(O)c2O	> 4 mM (inactive)
C=CCNC(=O)c1nn2cccnc2c1Cl	> 4 mM (inactive)
NC(CCC(=O)Nc1ccc([N+](=O)[O-])cc1)C(=O)O (stereo not drawn)	> 4 mM (inactive)
c1n[nH]cc1-c1cn[nH]c1	> 4 mM (inactive)
